Data published in US20120202793A1, “RHO KINASE INHIBITORS” (priority 2009, published 2012).

Key:
ROCK 1 = ROCK 1 (Homo sapiens, UniProt Q13464); assay: Inhibition of Rho kinase ROCK 1 (Tables 2.1-2.4); assay type: biochemical
Description: (§1) Inhibitory activity for Rho kinase was determined for examples of compounds of the present invention. Inhibition of Rho kinase can be assayed as described. For each of these compounds their inhibitory activity for both ROCK1 and ROCK2 was determined.
(§2) The IC50 values (in μM) for each of these compounds show a selectivity for inhibiting ROCK2.

ROCK 2 = ROCK 2 (Homo sapiens, UniProt O75116); assay: Inhibition of Rho kinase ROCK 2 (Tables 2.1-2.4); assay type: biochemical
Chain of ROCK 2 (O75116 whole entry, species assumed): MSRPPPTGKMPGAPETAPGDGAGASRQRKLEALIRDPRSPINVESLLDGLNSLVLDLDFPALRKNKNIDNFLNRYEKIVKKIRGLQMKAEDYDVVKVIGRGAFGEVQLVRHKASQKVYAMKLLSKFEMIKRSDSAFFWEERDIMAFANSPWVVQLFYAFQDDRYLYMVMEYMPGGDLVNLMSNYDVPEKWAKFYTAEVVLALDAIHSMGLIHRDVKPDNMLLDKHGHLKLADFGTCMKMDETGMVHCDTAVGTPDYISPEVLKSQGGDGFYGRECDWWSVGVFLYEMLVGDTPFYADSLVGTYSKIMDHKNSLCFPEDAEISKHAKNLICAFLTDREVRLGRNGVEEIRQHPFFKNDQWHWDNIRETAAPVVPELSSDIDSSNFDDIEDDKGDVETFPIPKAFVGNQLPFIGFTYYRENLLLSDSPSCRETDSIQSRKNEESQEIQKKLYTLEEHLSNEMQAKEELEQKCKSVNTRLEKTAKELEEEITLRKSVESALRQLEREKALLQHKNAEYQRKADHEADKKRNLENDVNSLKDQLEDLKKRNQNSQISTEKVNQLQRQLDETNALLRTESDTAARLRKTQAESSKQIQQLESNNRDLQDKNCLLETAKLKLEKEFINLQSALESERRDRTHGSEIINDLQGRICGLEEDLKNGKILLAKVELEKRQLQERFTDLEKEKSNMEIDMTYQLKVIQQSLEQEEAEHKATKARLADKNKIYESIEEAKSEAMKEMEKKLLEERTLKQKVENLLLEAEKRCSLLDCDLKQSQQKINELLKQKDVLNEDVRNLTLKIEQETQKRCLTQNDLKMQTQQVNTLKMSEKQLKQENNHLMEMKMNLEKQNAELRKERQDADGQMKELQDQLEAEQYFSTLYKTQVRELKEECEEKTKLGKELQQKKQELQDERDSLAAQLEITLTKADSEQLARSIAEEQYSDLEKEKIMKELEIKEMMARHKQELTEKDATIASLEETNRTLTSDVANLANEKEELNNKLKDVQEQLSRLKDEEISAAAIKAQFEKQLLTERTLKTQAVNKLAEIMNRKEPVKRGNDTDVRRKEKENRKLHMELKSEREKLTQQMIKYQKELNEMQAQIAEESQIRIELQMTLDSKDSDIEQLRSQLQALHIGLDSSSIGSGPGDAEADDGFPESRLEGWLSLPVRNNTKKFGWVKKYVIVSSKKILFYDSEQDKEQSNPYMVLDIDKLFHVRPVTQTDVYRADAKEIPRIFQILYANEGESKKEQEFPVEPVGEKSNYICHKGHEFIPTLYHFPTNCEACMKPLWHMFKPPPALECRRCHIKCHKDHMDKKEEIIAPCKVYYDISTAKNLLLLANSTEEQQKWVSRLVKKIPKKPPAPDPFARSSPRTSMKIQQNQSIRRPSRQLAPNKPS
Description: as §1, §2

ROCK2 = assay: Inhibition of phosphorylation of S6 Long Peptide by ROCK1 and ROCK2 (33P filter assay), selective inhibition of ROCK2; assay type: biochemical
Description: Filtration was done in 96 well filter plates containing phosphocellulose cation exchange paper (Millipore, Cat#MAPHNOBIO).
The reaction was incubated for 40 minutes at room temperature and stopped with 25 ul 3% phosphoric acid. Reaction was then transferred to a filter plate wet with 75 mM phosphoric acid. The plate was then washed three times with 75 mM phosphoric acid and once with methanol. […] IC50 values were determined using Graphpad Prism.

[1] = Fasting insulin and glucose levels in ApoE (−/−) and C57BL/6 mice on high fat diet; assay type: in vivo
From the text: (§3) In a different experiment, ApoE (−/−) deficient mice were compared with C57BL/6 mice. All mice were initially fed a control diet for one week, and a high fat diet for the following 11 weeks. At the start of the fourth week, half of the C57BL/6 mice and half of the ApoE (−/−) mice were supplemented with 0.1% SLx-2119 in the diet.
The reductions in fasting insulin levels were accompanied by reductions in fasting blood glucose levels. (FIG. 18, bottom).

[2] = Attenuation of weight gain in Leptin deficient (ob−/ob−) mice, low fat or high fat diet; assay type: in vivo
Description: The effect of SLx-2119 on weight gain in Leptin deficient (ob^−/ob^−) mice fed a low fat (normal) or high fat diet was also measured. […] The leptin deficient mice gained considerably more weight than normal 057BL/6 mice fed the low fat diet.
The leptin deficient mice consuming the high fat diet gained weigh at about four times the rate of normal mice on a low fat diet. […] As with the low fat diet, caloric intake was quite a bit higher in the ob^−/ob^− mice, whether or not they received SLx-2119. (FIG. 23).

[3] = Attenuation of weight gain in ApoE (−/−) and C57BL/6 mice on high fat diet; assay type: in vivo; conditions: 0.1% in the diet from the fourth week, FIG. 15
From the text: as §3

[4] = Attenuation of hyperinsulinemia in Leptin deficient (ob−/ob−) mice; assay type: in vivo
From the text: Leptin deficient (ob^−/ob^−) mice were maintained on a normal (control), or a high fat diet with or without SLx-2119. […] Attenuation of hyperinsulinemia was similarly observed in ob^−/ob^− mice maintained on a low fat diet (FIG. 26).

[5] = Body weight of rats fed a low fat diet; assay type: in vivo
From the text: The effect of SLx-2119 supplementation on body weight of rats fed a low fat diet was also investigated.

[6] = Glucose tolerance in C57BL/6 mice after 54 days on diet; assay type: in vivo; conditions: high fat diet with compound, meal after overnight fast, FIG. 14
From the text: Separate groups of C57BL/6 mice were fed as above, and evaluated for glucose tolerance after 54 days. All mice were fed the same meal |what is the meal| after an overnight fast. […] (FIG. 14)

[7] = Attenuation of weight gain, C57BL/6 mice consuming a high fat diet; assay type: in vivo
Description: The ability of SLx-2119 to limit weight gain was evaluated by administration to C57BL/6, ApoE knockout, and leptin deficient mice as part of a high fat or low fat diet.
Three groups of 10 mice each were initially fed a control diet for a week. Two groups were then switched to a high fat diet in which 42% of the calories were from fat. SLx-2119 was included in the diet of one of the two groups. The third group continued on the control diet. Fasting glucose levels were measured during the first week (all groups consuming the control diet), and again during the third and sixth week.

Chain of ROCK 1 (Q13464 whole entry, species assumed): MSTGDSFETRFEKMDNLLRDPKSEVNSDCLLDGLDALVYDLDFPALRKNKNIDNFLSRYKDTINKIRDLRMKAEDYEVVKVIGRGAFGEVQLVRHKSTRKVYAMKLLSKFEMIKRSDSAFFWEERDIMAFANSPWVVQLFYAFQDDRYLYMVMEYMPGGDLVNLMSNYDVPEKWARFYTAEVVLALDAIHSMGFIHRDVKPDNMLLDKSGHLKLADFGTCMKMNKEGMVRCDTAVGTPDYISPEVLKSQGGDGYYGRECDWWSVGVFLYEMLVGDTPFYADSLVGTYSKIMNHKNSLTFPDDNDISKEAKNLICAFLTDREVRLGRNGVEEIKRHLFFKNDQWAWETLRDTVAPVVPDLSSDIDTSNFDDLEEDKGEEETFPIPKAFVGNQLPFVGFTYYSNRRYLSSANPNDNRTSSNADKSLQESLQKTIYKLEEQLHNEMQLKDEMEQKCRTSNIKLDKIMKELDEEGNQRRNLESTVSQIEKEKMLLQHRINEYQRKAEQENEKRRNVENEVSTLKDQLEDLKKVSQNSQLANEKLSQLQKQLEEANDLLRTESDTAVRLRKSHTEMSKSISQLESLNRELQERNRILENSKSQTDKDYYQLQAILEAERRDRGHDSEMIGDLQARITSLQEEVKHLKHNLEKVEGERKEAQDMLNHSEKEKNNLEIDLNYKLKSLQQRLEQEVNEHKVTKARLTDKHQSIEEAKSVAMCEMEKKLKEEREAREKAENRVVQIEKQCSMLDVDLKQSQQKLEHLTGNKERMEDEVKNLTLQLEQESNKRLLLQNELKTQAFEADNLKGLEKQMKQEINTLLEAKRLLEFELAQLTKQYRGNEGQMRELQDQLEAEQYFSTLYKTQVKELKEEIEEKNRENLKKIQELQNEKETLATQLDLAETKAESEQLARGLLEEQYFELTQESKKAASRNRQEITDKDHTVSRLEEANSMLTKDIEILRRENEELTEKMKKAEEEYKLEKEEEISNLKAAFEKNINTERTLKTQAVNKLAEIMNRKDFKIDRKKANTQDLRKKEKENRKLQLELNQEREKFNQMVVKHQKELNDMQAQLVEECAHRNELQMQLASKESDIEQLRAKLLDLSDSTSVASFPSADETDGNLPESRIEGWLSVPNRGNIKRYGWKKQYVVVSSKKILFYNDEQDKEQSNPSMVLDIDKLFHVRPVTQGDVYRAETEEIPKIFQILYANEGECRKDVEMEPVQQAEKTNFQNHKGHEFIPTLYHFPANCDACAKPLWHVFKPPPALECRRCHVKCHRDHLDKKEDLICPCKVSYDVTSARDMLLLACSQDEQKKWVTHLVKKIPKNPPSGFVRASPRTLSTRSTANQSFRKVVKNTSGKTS

CCCC(=O)Nc1cccc(-c2nc(Nc3ccc4[nH]ncc4c3)c3cc(OCCCN4CCOCC4)c(OC)cc3n2)c1 [Example 160, N-(3-(4-(1H-indazol-5-ylamino)-7-methoxy-6-(3-morpholinopropoxy)quinazolin-2-yl)phenyl)butyramide]
IC50 (ROCK 1): > 3 µM | IC50 (ROCK 2): 0.05 µM

COCCNC(=O)COc1cccc(-c2nc(Nc3ccc4[nH]ncc4c3)c3ccccc3n2)c1 [Example 54, 2-(3-(4-(1H-indazol-5-ylamino)quinazolin-2-yl)phenoxy)-N-(2-methoxyethyl)acetamide]
IC50 (ROCK 1): > 10 µM | IC50 (ROCK 2): 0.15 µM

COc1cc2nc(-c3cccc(NC(=O)CN4CCOCC4)c3)nc(Nc3ccc4[nH]ncc4c3)c2cc1OCCN1CCCC1 [Example 167, N-(3-(4-(1H-Indazol-5-ylamino)-7-methoxy-6-(2-(pyrrolidin-1-yl)ethoxy)quinazolin-2-yl)phenyl)-2-morpholinoacetamide]
IC50 (ROCK 1): > 3 µM | IC50 (ROCK 2): 0.06 µM

O=C(COc1cccc(-c2nc(Nc3ccc4[nH]ncc4c3)c3ccccc3n2)c1)Nc1cccnc1 [Example 55, 2-(3-(4-(1H-indazol-5-ylamino)quinazolin-2-yl)phenoxy)-N-(pyridin-3-yl)acetamide]
IC50 (ROCK 1): > 10 µM | IC50 (ROCK 2): 0.09 µM

NC(=O)COc1cccc(-c2nc(Nc3ccc4[nH]ncc4c3)c3ccccc3n2)c1 [Example 84, 2-(3-(4-(1H-indazol-5-ylamino)quinazolin-2-yl)phenoxy)acetamide]
IC50 (ROCK 1): 2.6 µM | IC50 (ROCK 2): 0.52 µM

CC(=O)Oc1cccc(-c2nc(Nc3ccc4[nH]ncc4c3)c3ccccc3n2)c1 [Example 272]
IC50 (ROCK 1): > 10 µM | IC50 (ROCK 2): 0.57 µM

CCCC(=O)Nc1cccc(-c2nc(Nc3ccc4[nH]ncc4c3)c3ccc(OCCOC)cc3n2)c1 [Example 263]
IC50 (ROCK 1): > 3 µM | IC50 (ROCK 2): 0.09 µM

C[C@@H](N)[C@H]1CC[C@H](C(=O)Nc2ccncc2)CC1 [Example Y-27632]
inhibition of ROCK2 compared with ROCK1 (ROCK2): to the same extent

CCCC(=O)Nc1cccc(-c2nc(Nc3ccc4[nH]ncc4c3)c3cc(OCCN(C)C)ccc3n2)c1 [Example 141, N-(3-(4-(1H-indazol-5-ylamino)-6-(2-(dimethylamino)ethoxy)quinazolin-2-yl)phenyl)butyramide]
IC50 (ROCK 1): > 1 µM | IC50 (ROCK 2): 0.04 µM

CC(C)NC(=O)COc1cccc(-c2nc(Nc3ccc4[nH]ncc4c3)c3ccccc3n2)c1 [SLx-2119]
fasting blood glucose levels ([1]; C57BL/6 and ApoE (−/−) mice, FIG. 18 bottom): reductions | fasting insulin levels ([1]; normal C57BL/6 mice, FIG. 18 top): reduction | weight gain ([2]; normal C57BL/6 mice, low fat diet, FIG. 19): no distinguishable effect | weight gain ([2]; ob−/ob− mice, high fat diet, FIG. 22): reduced by half | weight gain ([2]; ob−/ob− mice, low fat diet, versus ob−/ob− mice without compound, FIG. 19): gained only half as much weight | weight gain less than in mice that did not receive the supplement ([3]; ApoE (−/−) mice): 50% | weight gain less than in mice that did not receive the supplement ([3]; C57BL/6 mice): 33% | fasting blood glucose levels ([4]; high fat diet, FIG. 25): reduced to normal levels | fasting insulin levels ([4]; high fat diet, FIG. 25): significantly reduced | hyperinsulinemia ([4]; low fat diet, FIG. 26): Attenuation | reduction of body weight gain ([5]; FIG. 27): about 6% | caloric intake ([5]; FIG. 28): little or no change | glucose levels following feeding [6]: increased relative to mice maintained on the control diet, but not as high as in mice that did not receive SLx-2119 | recovery of glucose levels [6]: quickly recovered to a normal level | weight gain ([7]; high fat diet (42% of calories from fat) supplemented with compound, versus control diet mice, FIG. 11): not distinguishable from the control mice | average caloric intake of untreated high fat diet mice relative to control and treated groups ([7]; high fat diet, FIG. 12): only slightly higher
